In patent US20140155389A1, “BICYCLIC INHIBITORS OF ALK” (ABBVIE INC., priority 2011, published 2014):

Each compound was assayed against T1, ALK (Homo sapiens, UniProt Q9UM73) (assay: ALK kinase assay (HTRF)). Details: apparent Ki from IC50 by Cheng-Prusoff; ALK (Millipore) 3 nM or 4 nM, 50 μM ATP, 1 h at room temperature; read-out: HTRF_ALK Human - Ki.
T1 construct: purchased Millipore
Assay type: biochemical

T1 sequence (Q9UM73 19-1620): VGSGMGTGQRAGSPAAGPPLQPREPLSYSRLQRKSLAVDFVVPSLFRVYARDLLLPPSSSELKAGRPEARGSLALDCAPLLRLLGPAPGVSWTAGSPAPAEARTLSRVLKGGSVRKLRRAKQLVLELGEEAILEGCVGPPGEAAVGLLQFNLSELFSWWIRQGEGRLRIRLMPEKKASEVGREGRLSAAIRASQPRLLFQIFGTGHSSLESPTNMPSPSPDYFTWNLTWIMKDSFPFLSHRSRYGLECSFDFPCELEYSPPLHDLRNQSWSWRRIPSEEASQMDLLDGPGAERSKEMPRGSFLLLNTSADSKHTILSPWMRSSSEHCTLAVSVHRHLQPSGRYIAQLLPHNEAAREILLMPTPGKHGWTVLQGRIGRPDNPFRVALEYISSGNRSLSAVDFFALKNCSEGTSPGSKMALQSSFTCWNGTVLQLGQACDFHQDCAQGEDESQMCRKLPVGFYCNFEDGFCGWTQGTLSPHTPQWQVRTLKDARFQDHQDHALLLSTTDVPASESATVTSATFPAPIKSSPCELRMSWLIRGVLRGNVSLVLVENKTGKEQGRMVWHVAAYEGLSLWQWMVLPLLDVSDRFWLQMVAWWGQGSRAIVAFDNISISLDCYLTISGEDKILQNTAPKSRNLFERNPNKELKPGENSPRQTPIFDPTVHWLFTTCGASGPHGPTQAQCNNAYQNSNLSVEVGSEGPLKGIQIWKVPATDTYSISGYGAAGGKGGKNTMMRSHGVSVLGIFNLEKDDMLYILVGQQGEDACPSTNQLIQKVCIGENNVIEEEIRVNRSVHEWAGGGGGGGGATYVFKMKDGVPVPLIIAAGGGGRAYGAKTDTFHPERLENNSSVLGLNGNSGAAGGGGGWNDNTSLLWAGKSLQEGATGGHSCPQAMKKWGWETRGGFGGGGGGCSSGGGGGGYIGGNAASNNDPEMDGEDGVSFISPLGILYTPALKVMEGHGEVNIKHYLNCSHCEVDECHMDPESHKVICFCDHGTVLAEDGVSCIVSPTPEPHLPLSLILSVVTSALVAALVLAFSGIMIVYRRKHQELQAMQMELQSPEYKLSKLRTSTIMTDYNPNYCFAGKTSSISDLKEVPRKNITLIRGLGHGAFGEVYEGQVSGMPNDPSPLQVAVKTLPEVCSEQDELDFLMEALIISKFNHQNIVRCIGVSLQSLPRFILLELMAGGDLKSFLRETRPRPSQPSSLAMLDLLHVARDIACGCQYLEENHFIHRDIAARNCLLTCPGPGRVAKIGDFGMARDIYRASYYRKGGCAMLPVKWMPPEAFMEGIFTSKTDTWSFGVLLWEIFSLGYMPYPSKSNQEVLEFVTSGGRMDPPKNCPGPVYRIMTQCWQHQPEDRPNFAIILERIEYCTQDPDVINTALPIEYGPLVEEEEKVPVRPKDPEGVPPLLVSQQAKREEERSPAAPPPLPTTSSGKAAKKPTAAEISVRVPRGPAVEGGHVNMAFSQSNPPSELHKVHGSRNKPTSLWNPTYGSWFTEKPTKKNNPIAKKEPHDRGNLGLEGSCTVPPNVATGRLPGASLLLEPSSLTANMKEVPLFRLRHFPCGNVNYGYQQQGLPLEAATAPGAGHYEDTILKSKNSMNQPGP

| SMILES | Ki [nM] |
| --- | --- |
| COc1cc(N2CCNCC2)ccc1Nc1nc(Oc2ccc(Cl)c(Cl)c2Cl)cc2cnnc(O)c12 [Example 84, 5-{[2-methoxy-4-(piperazin-1-yl)phenyl]amino}-7-(2,3,4-trichlorophenoxy)pyrido[3,4-d]pyridazin-4-ol] | 5 |
| COc1cc(N2CCNCC2)ccc1Nc1nc(Oc2ccc(Cl)cc2Cl)cc2cn[nH]c(=O)c12 [Example 85, 7-(2,4-dichlorophenoxy)-5-{[2-methoxy-4-(piperazin-1-yl)phenyl]amino}pyrido[3,4-d]pyridazin-4(3H)-one] | 5 |
| COc1cc(N2CCNCC2)ccc1Nc1nc(N[C@H]2CC[C@H](O)CC2)cc2cnnc(O)c12 [Example 86, 7-[(trans-4-hydroxycyclohexyl)amino]-5-{[2-methoxy-4-(piperazin-1-yl)phenyl]amino}pyrido[3,4-d]pyridazin-4-ol] | 2 |
| COc1cc(N2CCNCC2)ccc1Nc1nc(OC2CCCC2)cc2cnnc(O)c12 [Example 87, 7-(cyclopentyloxy)-5-{[2-methoxy-4-(piperazin-1-yl)phenyl]amino}pyrido[3,4-d]pyridazin-4-ol] | 4 |
| COc1cc2c(cc1Nc1nc(Cc3c(Cl)cccc3Cl)cc3cn[nH]c(=O)c13)CCNC2 [Example 88, 7-(2,6-dichlorobenzyl)-5-[(7-methoxy-1,2,3,4-tetrahydroisoquinolin-6-yl)amino]pyrido[3,4-d]pyridazin-4(3H)-one] | 4 |
| COc1cc(N2CCNCC2)ccc1Nc1cc(Oc2ccccc2Cl)nc2cn[nH]c(=O)c12 [Example 89, 2-(2-chlorophenoxy)-4-{[2-methoxy-4-(piperazin-1-yl)phenyl]amino}pyrido[2,3-d]pyridazin-5(6H)-one] | 15 |
| Oc1nncc2cc(N3CCC(F)CC3)nc(Nc3ccc(CN4CCCC4)cc3Cl)c12 [Example 90, 5-{[2-chloro-4-(pyrrolidin-1-ylmethyl)phenyl]amino}-7-(4-fluoropiperidin-1-yl)pyrido[3,4-d]pyridazin-4-ol] | 7 |
| COc1cc2c(cc1Nc1cc(Cc3ccccc3Cl)nc3cnnc(O)c13)CNCC2 [Example 91, 2-(2-chlorobenzyl)-4-[(6-methoxy-1,2,3,4-tetrahydroisoquinolin-7-yl)amino]pyrido[2,3-d]pyridazin-5-ol] | 55 |
| COc1cc(CN2CCNCC2)ccc1Nc1cc(Cc2ccccc2Cl)nc2cn[nH]c(=O)c12 [Example 92, 2-(2-chlorobenzyl)-4-{[2-methoxy-4-(piperazin-1-ylmethyl)phenyl]amino}pyrido[2,3-d]pyridazin-5(6H)-one] | 15 |
| Oc1nncc2cc(NCC3CC3)nc(Nc3ccc(CN4CCCC4)cc3Cl)c12 [Example 93, 5-{[2-chloro-4-(pyrrolidin-1-ylmethyl)phenyl]amino}-7-[(cyclopropylmethyl)amino]pyrido[3,4-d]pyridazin-4-ol] | 4 |
| COc1cc(CN2CCOCC2)ccc1Nc1cc(Cc2ccccc2Cl)nc2cnnc(O)c12 [Example 94, 2-(2-chlorobenzyl)-4-{[2-methoxy-4-(morpholin-4-ylmethyl)phenyl]amino}pyrido[2,3-d]pyridazin-5-ol] | 51 |
| CCOc1cc(CN2CCCC2)ccc1Nc1nc(Oc2ccccc2Cl)cc2cn[nH]c(=O)c12 [Example 95, 7-(2-chlorophenoxy)-5-{[2-ethoxy-4-(pyrrolidin-1-ylmethyl)phenyl]amino}pyrido[3,4-d]pyridazin-4(3H)-one] | 138 |
| O=c1[nH]ncc2cc(N3CCC(O)CC3)nc(Nc3ccc(CN4CCCC4)cc3Cl)c12 [Example 96, 5-{[2-chloro-4-(pyrrolidin-1-ylmethyl)phenyl]amino}-7-(4-hydroxypiperidin-1-yl)pyrido[3,4-d]pyridazin-4(3H)-one] | 9 |
| O=c1[nH]ncc2cc(N3CC(O)C3)nc(Nc3ccc(CN4CCCC4)cc3Cl)c12 [Example 97, 5-{[2-chloro-4-(pyrrolidin-1-ylmethyl)phenyl]amino}-7-(3-hydroxyazetidin-1-yl)pyrido[3,4-d]pyridazin-4(3H)-one] | 74 |
| COc1cc(C2CCNCC2)ccc1Nc1nc(Oc2ccccc2Cl)cc2cnnc(O)c12 [Example 98, 7-(2-chlorophenoxy)-5-{[2-methoxy-4-(piperidin-4-yl)phenyl]amino}pyrido[3,4-d]pyridazin-4-ol] | 9 |
| COc1cc(C2CCNCC2)ccc1Nc1nc(NCC2CC2)cc2cnnc(O)c12 [Example 99, 7-[(cyclopropylmethyl)amino]-5-{[2-methoxy-4-(piperidin-4-yl)phenyl]amino}pyrido[3,4-d]pyridazin-4-ol] | 6 |
| COc1cc(C2CCNCC2)ccc1Nc1cc(Cc2ccccc2Cl)nc2cn[nH]c(=O)c12 [Example 100, 2-(2-chlorobenzyl)-4-{[2-methoxy-4-(piperidin-4-yl)phenyl]amino}pyrido[2,3-d]pyridazin-5(6H)-one] | 4 |
| COc1cc(C2CCNCC2)ccc1Nc1cc(Cc2c(Cl)cccc2Cl)nc2cn[nH]c(=O)c12 [Example 101, 2-(2,6-dichlorobenzyl)-4-{[2-methoxy-4-(piperidin-4-yl)phenyl]amino}pyrido[2,3-d]pyridazin-5(6H)-one] | 1 |
| COc1cc(C2CCNCC2)ccc1Nc1cc(CCN2CCOCC2)nc2cn[nH]c(=O)c12 [Example 102, 4-{[2-methoxy-4-(piperidin-4-yl)phenyl]amino}-2-[2-(morpholin-4-yl)ethyl]pyrido[2,3-d]pyridazin-5(6H)-one] | 331 |
| O=c1[nH]ncc2cc(Oc3ccccc3Cl)nc(Nc3ccc(N4CCNCC4)cn3)c12 [Example 103, 7-(2-chlorophenoxy)-5-{[5-(piperazin-1-yl)pyridin-2-yl]amino}pyrido[3,4-d]pyridazin-4(3H)-one] | 20 |
| COc1cc(C2CCNCC2)ccc1Nc1cc(CCC2CC2)nc2cn[nH]c(=O)c12 [Example 104, 2-(2-cyclopropylethyl)-4-{[2-methoxy-4-(piperidin-4-yl)phenyl]amino}pyrido[2,3-d]pyridazin-5(6H)-one] | 75 |
| COc1cc(C(=O)N2CCCC2)ccc1Nc1nc(Oc2ccccc2Cl)cc2cnnc(O)c12 [Example 105, (4-{[7-(2-chlorophenoxy)-4-hydroxypyrido[3,4-d]pyridazin-5-yl]amino}-3-methoxyphenyl)(pyrrolidin-1-yl)methanone] | > 470 |
| CCOc1cc(C2CCNCC2)ccc1Nc1nc(Oc2ccccc2Cl)cc2cn[nH]c(=O)c12 [Example 106, 7-(2-chlorophenoxy)-5-{[2-ethoxy-4-(piperidin-4-yl)phenyl]amino}pyrido[3,4-d]pyridazin-4(3H)-one] | 21 |
| COc1cc(C2CCNCC2)ccc1Nc1cc(Cc2ccccc2F)nc2cn[nH]c(=O)c12 [Example 107, 2-(2-fluorobenzyl)-4-{[2-methoxy-4-(piperidin-4-yl)phenyl]amino}pyrido[2,3-d]pyridazin-5(6H)-one] | 16 |
| COc1cc(C2CCNCC2)ccc1Nc1cc(Cc2cccc(Cl)c2Cl)nc2cn[nH]c(=O)c12 [Example 108, 2-(2,3-dichlorobenzyl)-4-{[2-methoxy-4-(piperidin-4-yl)phenyl]amino}pyrido[2,3-d]pyridazin-5(6H)-one] | 8 |
| COc1cc(C2CCNCC2)ccc1Nc1cc(Cc2c(F)cccc2F)nc2cn[nH]c(=O)c12 [Example 109, 2-(2,6-difluorobenzyl)-4-{[2-methoxy-4-(piperidin-4-yl)phenyl]amino}pyrido[2,3-d]pyridazin-5(6H)-one] | 6 |
